What was measured:
[1] = Particle size and polydispersity index of nanoparticle compositions (Zetasizer Nano ZS); type: physicochemical
How it was run: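 Formulations of ionizable lipid, DSPC, cholesterol and PEG-DMG (50:10:38.5:1.5 mol %) carrying Luc or hEPO mRNA with all uridines as N1-methyl pseudouridine. Dynamic light scattering in 1×PBS gave particle size and polydispersity; zeta potential read in 15 mM PBS.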

[2] = test system: modified luciferase; assay: Luciferase expression in liver, lung, spleen and femur 6 hours after intravenous administration to mice; type: in vivo; details: 6 hours after intravenous 0.5 mpk, mice
How it was run: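 Mice (n=3) got a single 0.5 mpk IV dose of each nanoparticle composition, with MC3 and PBS controls alongside. Organ luminescence flux was read 6 h post-dose.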

[3] = test system: IL-6, IP-10; assay: Cytokine induction (IL-6, IP-10) in mice 6 hours after intravenous administration; type: in vivo; parameters: unit not given here; details: intravenous 0.5 mpk
How it was run: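 IL-6 and IP-10 concentrations determined 6 hours after a single intravenous 0.5 mpk dose of lipid nanoparticle formulation in mice, with MC3 and PBS as comparators.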

[4] = test system: hEPO mRNA; assay: hEPO expression after intravenous administration to rats; type: in vivo, rat; details: for hEPO expression / hEPO expression, 0.25 h / hEPO expression, 0.5 h / hEPO expression, 1 h / hEPO expression, 2 h / hEPO expression, 4 h / hEPO expression, 8 h / hEPO expression, 24 h / hEPO expression, 48 h: rat; for Lipid/MC3 hEPO conc. ratio, 0.2 mpk / Lipid/MC3 hEPO conc. ratio, 2 mpk: rats; for Lipid/MC3 hEPO expression: 6 hours after administration
Experimental: The expression of hEPO and cytokine induction in rats intravenously administered a nanoparticle composition at a dose of 2.0 mpk was measured at 6 h.
The expression of hEPO in rats intravenously administered a nanoparticle composition at a dose of 0.2 mpk or 2.0 mpk was measured at 6 hours. Table 16 summarize the ratio of hEPO expression levels using various nanoparticle compositions as compared to the hEPO expression level using MC3 formulation and the lipid levels in the liver measured 48 hours after administration, as described above. Tables 17 and 18 summarize the lipid levels in the liver and spleen measured 48 hours after administration of Compounds 28, 33, 53, and 54. Liver and spleen levels represent the average values calculated for 3 rats in each group. As is shown in Tables 17 and 18, less than 10% of Compounds 28, 33, 53, and 54 remained in the liver after 48 hours, while greater than 60% of MC3 remained.
Table 19A summarizes the hEPO expression, IP-10 induction, liver and spleen levels, and alanine aminotransferase (ALT) and aspartate aminotransferase (AST) measured upon intravenous administration of formulations including Compounds 48, 49, and 50 to rat at 0.2 and 2 mpk and hEPO mRNA. hEPO concentrations were measured 6 hours after administration, while cytokine induction and liver and spleen levels were measured 48 hours after administration. hEPO and IP-10 concentrations are presented in pg/ml, while liver levels are provided in ng/g. ALT and AST levels are presented in international units.
The expression of hEPO induced by intravenous administration to rats of nanoparticle compositions at various doses was measured at 2, 4, 6, 8, 24, and 48 hour time points. FIGS. 3-6 respectively summarize the hEPO expression measured upon intravenous administration of formulations including Compounds 26, 18, 25, and MC3 to rat at various doses. The lipid levels of Compound 26 in the liver after 48 hours were about 19%.
The expression of hEPO and lipid levels in the liver and spleen in rats intravenously administered a nanoparticle composition at a dose of 0.2 mpk was measured at various time points. Compounds 18 and 25 were selected for comparison with MC3. Lipids were formulated according to the standard MC3 formulation described above. Rats were administered intravenously a single 0.2 mpk dose and expression monitored at 0.25, 0.5, 1, 2, 4, 8, 24, and 48 hours after administration.

[5] = Table 1A, lipid:DSPC:cholesterol:PEG-DMG 50:10:38.5:1.5 mol %
[6] = Table 1B, formulated with hEPO mRNA
[7] = Table 1D, compositions for subcutaneous administration, # formulated with hEPO mRNA
[8] = Table 1C, compositions for subcutaneous administration
[9] = Table 1E, compositions for subcutaneous administration
[10] = lipid:DSPC:Chol:PEG-DMG (50:10:38.5:1.5), hEPO mRNA
[11] = nanoparticle composition with hEPO mRNA (Table 30)

Row | Compound | Size [1, 5] | Size [1, 7] | Size [1, 8] | Total Flux, Femur [2] | Total Flux, Liver [2] | Total Flux, Lung [2] | Total Flux, Spleen [2] | Cytokine induction, IL-6 [3] | Cytokine induction, IP-10 [3] | hEPO expression ([4]; intravenous, 6 h, 2 mpk) | Lipid/MC3 hEPO conc. ratio, 0.2 mpk ([4]; intravenous 0.2 mpk, 6 hours) | Lipid/MC3 hEPO conc. ratio, 2 mpk ([4]; intravenous 2 mpk, 6 hours) | Size [1, 6] | hEPO expression, 0.25 h ([4]; intravenous 0.2 mpk) | hEPO expression, 0.5 h ([4]; intravenous 0.2 mpk) | hEPO expression, 1 h ([4]; intravenous 0.2 mpk) | hEPO expression, 2 h ([4]; intravenous 0.2 mpk) | hEPO expression, 4 h ([4]; intravenous 0.2 mpk) | hEPO expression, 8 h ([4]; intravenous 0.2 mpk) | hEPO expression, 24 h ([4]; intravenous 0.2 mpk) | further results
1 | CCCCCCCCCN(CCO)CCCCCCCC(=O)OC(CCCCCCCC)CCCCCCCC [Compound 3, Heptadecan-9-yl 8-((2-hydroxyethyl)(nonyl)amino)octanoate] | 97.5 nm |  |  | 7.36E+06 | 1.39E+10 | 4.76E+07 | 1.47E+08 | 282.88 | 2052.87 | 1.74e+07 pg/mL | 2.41 | 1.21 |  |  |  |  |  |  |  |  | 
2 | CCCCCCCCCOC(=O)CCCCCCCN(CCO)CCCCCCCC(=O)OC(CCCCCCCC)CCCCCCCC [Compound 18, Heptadecan-9-yl 8-((2-hydroxyethyl)(8-(nonyloxy)-8-oxooctyl)amino)octanoate] | 87.9 nm | 75.0 nm |  | 4.68E+06 | 2.76E+09 | 1.25E+07 | 5.15E+07 | 78.76 | 139.92 | 9.96e+06 pg/mL |  | 0.81 | 73.7 nm | 20227 pg/mL | 20743 pg/mL | 194353 pg/mL | 238107 pg/mL | 514807 pg/mL | 915320 pg/mL | 412051 pg/mL | hEPO expression, 48 h ([4]; intravenous 0.2 mpk): 52361 pg/mL
3 | CCCCCCCCCOC(=O)CCCN(CCO)CCCCCCCC(=O)OC(CCCCCCCC)CCCCCCCC [Compound 26, Heptadecan-9-yl 8-((2-hydroxyethyl)(4-(nonyloxy)-4-oxobutyl)amino) octanoate] |  |  |  | 4.67E+06 | 2.90E+09 | 1.18E+07 | 1.56E+07 | 273.56 | 2330.01 |  |  | 4.95 |  |  |  |  |  |  |  |  | 
4 | CCCCCC=CCC=CCCCCCCCCC(CCCCCCCCC=CCC=CCCCCC)OC(=O)CCCN(C)C (stereo not drawn) [MC3, heptatriaconta-6,9,28,31-tetraen-19-yl 4-(dimethylamino)butanoate, reference compound] | 79.7 nm | 69.1 nm | 56.9 nm | 2.56E+06 | 2.57E+09 | 1.27E+07 | 2.85E+07 | 124.42 | 504.90 | 1.33e+07 pg/mL | 1 | 1 | 57.7 nm | 0 pg/mL | 42457 pg/mL | 93720 pg/mL | 524093 pg/mL | 601307 pg/mL | 1536833 pg/mL | 703619 pg/mL | PDI [1, 5]: 0.11; PDI [1, 6]: 0.12; PDI [1, 8]: 0.09; PDI [1, 7]: 0.15; PDI [1, 9]: 0.10; Size [1, 9]: 62.4 nm; PDI [1, 10]: 0.114; Size [1, 10]: 73.7 nm; PDI [1, 11]: 0.220; Size [1, 11]: 106.0 nm; Lipid/MC3 hEPO expression ([4]; 0.2 mpk dose to rat): 1; Lipid/MC3 hEPO expression ([4]; 2 mpk dose to rat): 1; [hEPO] ([4]; Table 19B): 14800 pg/mL; hEPO AUC ([4]; Table 19B): 3.46e+07 pg·h/mL; hEPO expression ([4]; intravenous 0.2 mpk, 6 hours): 7.68e+06 pg/mL; hEPO expression, 48 h ([4]; intravenous 0.2 mpk): 64687 pg/mL; hEPO expression ([4]; intravenous 2 mpk, 6 hours): 9.29e+06 pg/mL
5 | Nonyl 8-((6-(heptadecan-9-yloxy)-6-oxohexyl)(2-hydroxyethyl)amino) octanoate [Compound 27] | 82.3 nm |  |  | 2.00E+06 | 2.16E+09 | 6.35E+06 | 3.78E+06 | 161.07 | 345.56 |  |  |  |  |  |  |  |  |  |  |  | PDI [1, 5]: 0.18

Second part, led by results:

Row | Size [1, 5] | Size [1, 7] | Size [1, 8] | Compound | Total Flux, Femur [2] | Total Flux, Liver [2] | Total Flux, Lung [2] | Total Flux, Spleen [2] | Cytokine induction, IL-6 [3] | Cytokine induction, IP-10 [3] | hEPO expression ([4]; intravenous, 6 h, 2 mpk) | Lipid/MC3 hEPO conc. ratio, 0.2 mpk ([4]; intravenous 0.2 mpk, 6 hours) | Lipid/MC3 hEPO conc. ratio, 2 mpk ([4]; intravenous 2 mpk, 6 hours) | Size [1, 6] | hEPO expression, 0.25 h ([4]; intravenous 0.2 mpk) | hEPO expression, 0.5 h ([4]; intravenous 0.2 mpk) | hEPO expression, 1 h ([4]; intravenous 0.2 mpk) | hEPO expression, 2 h ([4]; intravenous 0.2 mpk) | hEPO expression, 4 h ([4]; intravenous 0.2 mpk) | hEPO expression, 8 h ([4]; intravenous 0.2 mpk) | hEPO expression, 24 h ([4]; intravenous 0.2 mpk) | further results
6 | 99.5 nm |  | 88.5 nm | CCCCCC/C=C\COC(=O)CCCCCCCN(CCO)CCCCCCCC(=O)OC(CCCCCCCC)CCCCCCCC [Compound 24, Heptadecan-9-yl (Z)-8-((2-hydroxyethyl) (8-(non-2-en-1-yloxy)-8-oxooctyl)amino)octanoate] | 4.54E+06 | 4.19E+09 | 1.71E+07 | 8.78E+07 | 163.53 | 1172.93 | 1.44e+07 pg/mL | 1.75 | 1.01 |  |  |  |  |  |  |  |  | 
7 |  | 77.6 nm | 76.3 nm | CCCCCCCCCCCOC(=O)CCCCCN(CCO)CCCCCCCC(=O)OC(CCCCCCCC)CCCCCCCC [Compound 25, Heptadecan-9-yl 8-((2-hydroxyethyl)(6-oxo-6-(undecyloxy)hexyl)amino)octanoate] | 4.40E+06 | 2.41E+09 | 1.51E+07 | 3.11E+07 | 233.45 | 1194.13 | 3.05e+07 pg/mL | 2.41 | 2.13 | 69.7 nm | 0 pg/mL | 19553 pg/mL | 434299 pg/mL | 2042807 pg/mL | 3176560 pg/mL | 2631633 pg/mL | 869374 pg/mL | hEPO expression, 48 h ([4]; intravenous 0.2 mpk): 103089 pg/mL
8 | 59.4 nm | 89.8 nm | 81.7 nm | CCCCCCCCCOC(=O)CCCCCCCN(CCO)CCCCCCCOC(=O)C(CCCCCCCC)CCCCCCCC [Compound 30, 7-((2-Hydroxyethyl)(8-(nonyloxy)-8-oxooctyl)amino)heptyl 2-octyldecanoate] | 6.38E+06 | 2.68E+09 | 1.02E+07 | 3.55E+07 | 152.51 | 1638.77 | 1.63e+07 pg/mL | 1.87 | 1.14 | 76.3 nm |  |  |  |  |  |  |  | 
9 | 82.3 nm | 79.8 nm |  | CCCCCCCCC(C)OC(=O)CCCCCCCN(CCO)CCCCCCCC(=O)OC(CCCCCCCC)CCCCCCCC (stereo not drawn) [Compound 48, decan-2-yl 8-((8-(heptadecan-9-yloxy)-8-oxooctyl)(2-hydroxyethyl)amino)octanoate] |  | 1.08E+10 | 3.31E+07 | 3.49E+08 |  |  |  | 5.39 | 3.84 |  |  |  |  |  |  |  |  | 
